Measured values published in patent publication US6583180B2, “Glucocorticoid receptor modulators” (Abbott Laboratories, priority 2001, dated 2003).

Each molecule was assayed against T1, Human glucocorticoid receptors (Homo sapiens, UniProt P04150) (assay: Radioligand filter binding assay, displacement of 3[H]-dexamethasone from hGR). Settings: read-out: GR Binding (% Inhibition at 1.7 μM).
T1 construct: made in house; host or cells: Sf9 insect cells, recombinant baculovirus (BAC-TO-BAC)
T1 sequence (P04150 1-777): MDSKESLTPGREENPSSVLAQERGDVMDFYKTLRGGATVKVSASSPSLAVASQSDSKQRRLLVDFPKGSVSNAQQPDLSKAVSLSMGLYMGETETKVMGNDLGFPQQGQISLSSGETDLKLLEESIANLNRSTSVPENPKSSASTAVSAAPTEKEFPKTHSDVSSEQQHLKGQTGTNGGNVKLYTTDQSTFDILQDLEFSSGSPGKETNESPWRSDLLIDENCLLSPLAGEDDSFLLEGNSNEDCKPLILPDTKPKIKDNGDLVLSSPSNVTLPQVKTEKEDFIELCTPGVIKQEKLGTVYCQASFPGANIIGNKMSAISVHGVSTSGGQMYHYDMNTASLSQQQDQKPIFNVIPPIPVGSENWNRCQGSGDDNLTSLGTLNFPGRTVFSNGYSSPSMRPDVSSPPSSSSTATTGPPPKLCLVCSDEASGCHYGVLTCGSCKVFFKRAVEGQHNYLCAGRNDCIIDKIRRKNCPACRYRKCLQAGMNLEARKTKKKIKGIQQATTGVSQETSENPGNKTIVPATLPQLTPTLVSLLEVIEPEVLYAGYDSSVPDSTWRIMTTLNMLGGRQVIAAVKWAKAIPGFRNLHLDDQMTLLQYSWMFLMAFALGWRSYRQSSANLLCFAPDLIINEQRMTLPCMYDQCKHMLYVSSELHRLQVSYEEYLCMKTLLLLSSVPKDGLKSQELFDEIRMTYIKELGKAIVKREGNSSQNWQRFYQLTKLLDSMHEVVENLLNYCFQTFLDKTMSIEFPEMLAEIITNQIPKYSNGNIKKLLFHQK
Source text: Dexamethasone hereafter referred to as dex was purchased from SIGMA. […] Human glucocorticoid receptors were extracted from Sf9 cells infected with a recombinant baculovirus transfer vector containing the cloned hGR genes. Recombinant baculovirus was generated utilizing the BAC-TO-BAC expression system (Life Technologies) in accordance to instruction from the supplier. The hGR coding sequences were cloned into a baculovirus transfer vector by standard techniques. The recombinant baculoviruses expressing hGR were amplified and used to infect Sf9 cells. Infected cells were harvested 48 hrs post infection. […] The concentration of hGR in the extract was measured as specific ^3[H]-dex binding with the G25-assay as described in J. Steroid Biochem. Molec. […] The extract was aliquoted and stored at −70° C.
The filter binding assay: Dilution series of the test compounds and dex as reference were made from 10 mM (1 mM dex) stock solutions in DMSO. 10 μl of the dilutions was added in duplicates to the wells. The cell extracts were diluted 10 fold in EPMo+MTG buffer (1 mM EDTA, HPO4 20 mM (pH8), 6 mM MTG). […] 110 μl of the diluted ^3[H]-dex were added to the wells. The final concentration of hGR in the experiment was estimated to 1 nM. All preparations were made in […] on ice and with +4° C. temperated buffers. The plates were incubated over night at +4° C. (15-20 hours).
The incubation was stopped by filtration through GF/B filter on the Tomtec Cellharvester. The filtration on the Tomtec Cellharvester was programmed as follows: 1) Preparation before filtration with EP buffer (1 mM EDTA 20 mM HPO4 (pH8)) 2×[Wash/Asp 0.6 sec., Asp 0.5 sec.]; 2) Prewet of GF/B filter with EP+PEI buffer (EP buffer, 0.3% Polyethylenimine) [Asp 0.8 sec.]; 3) Filtration/harvesting of the 96-well incubation plate 3×[Wash/Asp 0.6 sec., Asp 0.5 sec.]. The GF/B filter was dried for at least 1 hour at 65° C. A MeltiLex scintillation wax was melted onto the filter with the Microsealer. The filter was placed in a samplebag, which was thereafter trimmed with scissors to fit the filter cassette. The cassette were placed in the Microbeta and measured for 1 min/position, returning ccpm (corrected counts per minute).
b=((bmax−bmin)/(1+(I/IC50)^S))+bminI
The Microbeta-instrument generates the mean cpm (counts per minute) value/minute and corrects for individual variations between the detectors thus generating corrected cpm values.

| inhibition at 1.7 µM [%] | SMILES |
| --- | --- |
| 90.7 | Cc1c(NS(C)(=O)=O)cccc1N(Cc1ccccc1)Cc1ccc(Oc2ccc(OCCCCC(=O)N[C@H](C(=O)O)C(C)C)cc2)cc1 [Example 266, N-[5-(4-{4-[(benzyl{2-methyl-3-[(methylsulfonyl)amino]phenyl}amino)methyl]phenoxy}phenoxy)pentanoyl]-L-valine] |
| 96.5 | Cc1c(NS(C)(=O)=O)cccc1N(Cc1ccc(Oc2ccc(Cl)c(OCC(=O)NCCC(=O)O)c2)cc1)Cc1ccc(F)cc1F [Example 317, N-((2-chloro-5-(4-(((2,4-difluorobenzyl)(2-methyl-3-((methylsulfonyl)amino)phenyl)amino)methyl)phenoxy)phenoxy)acetyl)-beta-alanine] |
| 90.6 | Cc1c(NS(C)(=O)=O)cccc1N(Cc1ccccc1)Cc1ccc(Oc2ccc(OCC(=O)NN)cc2)cc1 [Example 277, N-[3-(benzyl{4-[4-(2-hydrazino-2-oxoethoxy)phenoxy]benzyl}amino)-2-methylphenyl]methanesulfonamide] |
| 96.4 | Cc1c(NS(C)(=O)=O)cccc1N(Cc1ccc(Oc2ccc(Cl)c(O[C@H](C)C(=O)O)c2)cc1)Cc1ccc(F)cc1F [Example 321, (2R)-2-(2-chloro-5-(4-(((2,4-difluorobenzyl)(2-methyl-3-((methylsulfonyl)amino)phenyl)amino)methyl)phenoxy)phenoxy)propanoic acid] |
| 75.9 | Cc1c(NS(C)(=O)=O)cccc1N(Cc1ccccc1)Cc1ccc([N+](=O)[O-])cc1 [Example 8, N-{3-[benzyl(4-nitrobenzyl)amino]-2-methylphenyl}methanesulfonamide] |
| 87.7 | Cc1c(NS(C)(=O)=O)cccc1N(Cc1ccccc1)Cc1ccc(Oc2cccc(OC[C@@H]3CCCN3)c2)cc1 [Example 291, N-{3-[benzyl(4-{3-[(2S)-pyrrolidin-2-ylmethoxy]phenoxy}benzyl)amino]-2-methylphenyl}methanesulfonamide] |
| 91.7 | Cc1c(NS(C)(=O)=O)cccc1N(Cc1ccccc1)Cc1ccc(Oc2cccc(OCCCC(=O)N3CCCC(C(=O)O)C3)c2)cc1 (stereo not shown) [Example 279, 1-[4-(3-{4-[(benzyl{2-methyl-3-[(methylsulfonyl)amino]phenyl}amino)methyl]phenoxy}phenoxy)butanoyl]piperidine-3-carboxylic acid] |
| 90.8 | Cc1c(NS(C)(=O)=O)cccc1N(Cc1ccccc1)Cc1ccc(Oc2ccc(OCCCCC(=O)NC3CCOC3=O)cc2)cc1 (stereo not shown) [Example 268, 5-(4-{4-[(benzyl{2-methyl-3-[(methylsulfonyl)amino]phenyl}amino)methyl]phenoxy}phenoxy)-N-(2-oxotetrahydrofuran-3-yl)pentanamide] |
| 96.1 | Cc1c(NS(C)(=O)=O)cccc1N(Cc1ccccc1)Cc1ccc(Oc2ccc(OCCCCC(=O)O)cc2)cc1 [Example 234, 5-(4-{4-[(benzyl{2-methyl-3-[(methylsulfonyl)amino]phenyl}amino)methyl]phenoxy}phenoxy)pentanoic acid] |
| 94.1 | Cc1c(NS(C)(=O)=O)cccc1N(Cc1ccccc1)Cc1ccc(C(=O)c2cccc(OCCC3CC3)c2)cc1 [Example 242, N-[3-(benzyl{4-[3-(2-cyclopropylethoxy)benzoyl]benzyl}amino)-2-methylphenyl]methanesulfonamide] |
| 90.6 | Cc1c(NS(C)(=O)=O)cccc1N(Cc1ccccc1)Cc1ccc(Oc2ccc(OCCCC(=O)Nc3cc(C(=O)O)n(C)c3)cc2)cc1 [Example 257, 4-{[4-(4-{4-[(benzyl{2-methyl-3-[(methylsulfonyl)amino]phenyl}amino)methyl]phenoxy}phenoxy)butanoyl]amino}-1-methyl-1H-pyrrole-2-carboxylic acid] |
| 95.1 | Cc1c(NS(C)(=O)=O)cccc1N(Cc1ccc(Oc2ccc(Cl)c(OCC(=O)NCCCC(=O)O)c2)cc1)Cc1ccc(F)cc1F [Example 318, 4-(((2-chloro-5-(4-(((2,4-difluorobenzyl)(2-methyl-3-((methylsulfonyl)amino)phenyl)amino)methyl)phenoxy)phenoxy)acetyl)amino)butanoic acid] |
| 89.2 | C=Cc1c(NS(C)(=O)=O)cccc1N(Cc1ccccc1)Cc1ccccc1 [Example 44, N-[3-(dibenzylamino)-2-vinylphenyl]methanesulfonamide] |
| 98.1 | Cc1c(NS(C)(=O)=O)cccc1N(Cc1ccccc1)Cc1ccc(Oc2cccc(OCCCCC(=O)O)c2)cc1 [Example 117, 5-(3-{4-[(benzyl{2-methyl-3-[(methylsulfonyl)amino]phenyl}amino)methyl]phenoxyl}phenoxy)pentanoic acid] |
| 92 | Cc1c(NS(C)(=O)=O)cccc1N(Cc1ccccc1)Cc1ccc(C(=O)c2cccc(OCC3CCCC3)c2)cc1 [Example 243, N-[3-(benzyl{4-[3-(cyclopentylmethoxy)benzoyl]benzyl}amino)-2-methylphenyl]methanesulfonamide] |
| 96.3 | Cc1c(NS(C)(=O)=O)cccc1N(Cc1ccc(Oc2ccc(Cl)c(OCC(=O)NCC(=O)O)c2)cc1)Cc1ccc(F)cc1F [Example 316, N-((2-chloro-5-(4-(((2,4-difluorobenzyl)(2-methyl-3-((methylsulfonyl)amino)phenyl)amino)methyl)phenoxy)phenoxy)acetyl)glycine] |
| 90.7 | Cc1c(NS(C)(=O)=O)cccc1N(Cc1ccccc1)Cc1ccc(Oc2ccc(OCCCCC(=O)N[C@@H](CO)C(=O)O)cc2)cc1 [Example 269, N-[5-(4-{4-[(benzyl{2-methyl-3-[(methylsulfonyl)amino]phenyl}amino)methyl]phenoxy}phenoxy)pentanoyl]-L-serine] |
| 91 | Cc1c(NS(C)(=O)=O)cccc1N(Cc1ccccc1)Cc1ccc(Oc2ccc(OCC(=O)NCCCC(=O)O)cc2)cc1 [Example 271, 4-{[(4-{4-[(benzyl{2-methyl-3-[(methylsulfonyl)amino]phenyl}amino)methyl]phenoxy}phenoxy)acetyl]amino}butanoic acid] |
| 89.2 | Cc1c(NS(C)(=O)=O)cccc1N(Cc1ccccc1)Cc1ccc(Oc2cccc(OC3CCOCC3)c2)cc1 [Example 287, N-[3-(benzyl{4-[3-(tetrahydro-2H-pyran-4-yloxy)phenoxy]benzyl}amino)-2-methylphenyl]methanesulfonamide] |
| 92.6 | Cc1c(NS(C)(=O)=O)cccc1N(Cc1ccccc1)Cc1ccc(Oc2ccc(OCCCC(=O)N[C@H](C(=O)O)C(C)C)cc2)cc1 [Example 256, N-[4-(4-{4-[(benzyl{2-methyl-3-[(methylsulfonyl)amino]phenyl}amino)methyl]phenoxy}phenoxy)butanoyl]-L-valine] |
| 97.4 | Cc1c(NS(C)(=O)=O)cccc1N(Cc1ccc(Oc2ccc(Cl)c(OCC(=O)O)c2)cc1)Cc1ccc(F)cc1Cl [Example 311, (2-chloro-5-(4-(((2-chloro-4-fluorobenzyl)(2-methyl-3-((methylsulfonyl)amino)phenyl)amino)methyl)phenoxy)phenoxy)acetic acid] |
| 75.6 | Cc1c(NS(C)(=O)=O)cccc1N(Cc1ccccc1)Cc1ccc2c(c1)OCCO2 [Example 16, N-{3-[benzyl(2,3-dihydro-1,4-benzodioxin-6-ylmethyl)amino]-2-methylphenyl}methanesulfonamide] |
